Reference: patent US20250145600A1, “2-((4-((S)-2-(4-CHLORO-2-FLUOROPHENYL)-2-METHYLBENZO[D][1,3]DIOXOL-4-YL)PIPERIDIN-1-YL)METHYL)-1-(((S)-OXETAN-2-YL)METHYL)-1H-IMIDAZOLE DERIVATIVES AS ACTIVATORS OF THE GLP1 RECEPTOR FOR THE TREATMENT OF OBESITY” (Novartis AG, priority 2022, published 2025)
pEC50: −log10 of the molar value.

Biological target: human GLP1R (hGLP1R) (Homo sapiens, UniProt P43220)
Assay: Human GLP1R β-arrestin recruitment assay (PathHunter)
Type: cell-based
Parameters: insert synthesized by GeneArt 93-0164 (CHO-K1-EA parental cells); 93-0491 (pCMV PK vector bundle)
Conditions: CHO-hGLP1R-β-arrestin cells; for pEC50: 2 h at 37° C., top concentration 30 μM, read-out: Beta-Arrestin assay EC50 Mean; for Emax: relative to GLP1(7-36), read-out: Beta-Arrestin assay Emax (%)
Protocol: Compounds of formula (I) according to the invention were tested in the following cellular assays that measure the intracellular cAMP concentration, beta-arrestin recruitment and receptor internalization. The cAMP is generated by the activation of GLP1R. The extent to which the GLP1R is internalized into the cell and away from the plasma membrane following activation is also shown in Table 2. EC50 for each assay is defined as the concentration of the compound that leads to half of the maximum response (after baseline correction). Emax is defined as the maximum response observed for the test compound, normalized to the maximum response observed for the endogenous ligand (GLP1(7-36)) to GLP1R.
Human GLP1R β-Arrestin Recruitment Assay
The extent to which agonists recruited β-arrestin was measured using the PathHunter® β-arrestin assay (DiscoverX). This assay measures binding of β-arrestin to the receptor using an enzyme complementation approach. […] When β-arrestin is recruited to the receptor the enzyme becomes active and generates luminescence in the presence of a chemiluminescent substrate (PathHunter® Detection Kit, DiscoverX cat #93-0001). Luminescence can be measured on a relevant detector. CHO-hGLP1R-β-arrestin cells stably overexpressing hGLP1R with Prolink tag and β-arrestin with EA tag were seeded at 20 μL per well in white 384-well poly-D-Lysine coated plates (Greiner Bio One, cat #781945) in Plating Reagent 2 (DiscoverX, cat #93-0563R^2A), and incubated overnight at 37° C., 5% CO2 with humidity. The following day, agonists were prepared at 5 times the final required concentration. To generate triplicate dose response curves, compounds were serially diluted 3-fold in assay buffer (HBSS, 10 mM Hepes and 0.1% BSA), then added to the cell assay plate to a final volume of 25 μL and final top concentrations starting at 30 μM. In the same plate and assay buffer as the tested compounds, were EC100 control wells containing GLP1 (7-36) peptide (Bachem, cat #H-6795) at a final concentration of 1 μM and also EC0 control wells containing no compound. The plate was incubated at 37° C., 5% CO2 with humidity for 2 h after adding the compounds to the cells. Then the detection reagent was prepared (19 parts cell assay buffer, 5 parts substrate reagent 1 and 1 part substrate reagent 2 as per manufacturers recommendations, DiscoverX cat #93-0001), and 12 μL were added per well to the cell assay plate. The plate was incubated for an additional hour in the dark at RT. Luminescence was then measured with an Envision 2104 Multilabel reader with “TRF Light Unit, 337 nm” (Perkin Elmer) using the Ultra-Sensitive protocol setting “384-well US luminescence detector” with the 384-well luminescence aperture, 0.1 sec per well. β-arrestin recruitment was calculated and expressed as percent of the GLP1 (7-36) EC100 control wells: [(sample signal−mean EC0 signal)/(mean EC100 of GLP1 (7-36) signal−mean EC0 signal)]*100 using Microsoft Excel. Curve fitting for EC50 determinations was performed using GraphPad Prism. The 4-parameter logistic model, Hill slope was used: Y=Bottom+(Top−Bottom)/(1+10^((Log EC50−X)*Hill Slope)), where Y is the functional response; X is the compound concentration; bottom is A0 or the minimum value (at 0 dose); top is Ainf or the maximum value (at infinite dose); EC50 is the point of inflection (i.e. the point on the sigmoid shaped curve halfway between A0 and Ainf). The EC50 value was calculated in μM. Emax is the maximal activity detected within the concentration range, derived from the fitted curve relative to GLP1(7-36).
PathHunter CHO-K1-EA parental cells (DiscoverX, cat #93-0164) were plated at a density of 2×10^6 cells per T75 cm^2 flask in 22 mL of complete medium (AssayComplete Cell Culture kit 107, DiscoverX, cat #92-3107G). The following day, the medium was replaced with 22 mL of fresh medium with no antibiotics and cells were transfected as follows. […]

human GLP1R (hGLP1R), sequence (P43220 24-463): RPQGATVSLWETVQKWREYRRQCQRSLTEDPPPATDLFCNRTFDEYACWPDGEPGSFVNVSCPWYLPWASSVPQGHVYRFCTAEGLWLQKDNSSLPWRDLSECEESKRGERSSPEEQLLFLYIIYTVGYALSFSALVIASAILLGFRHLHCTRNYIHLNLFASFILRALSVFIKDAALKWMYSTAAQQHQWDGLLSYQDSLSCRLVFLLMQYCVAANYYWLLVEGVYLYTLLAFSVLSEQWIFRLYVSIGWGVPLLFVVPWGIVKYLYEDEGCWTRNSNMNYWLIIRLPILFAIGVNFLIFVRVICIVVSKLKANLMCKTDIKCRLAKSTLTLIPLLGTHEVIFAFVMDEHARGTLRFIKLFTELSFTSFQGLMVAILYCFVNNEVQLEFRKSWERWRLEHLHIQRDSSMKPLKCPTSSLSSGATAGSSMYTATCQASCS

`Cc1c(-c2cnc(C(=O)O)o2)nc(CN2CCC(c3cccc4c3O[C@@](C)(c3ccc(Cl)cc3F)O4)CC2)n1C[C@@H]1CCO1` [Compound C-16, 5-(2-((4-((S)-2-(4-chloro-2-fluorophenyl)-2-methylbenzo[d][1,3]dioxol-4-yl)piperidin-1-yl)methyl)-5-methyl-1-(((S)-oxetan-2-yl)methyl)-1H-imidazol-4-yl)oxazole-2-carboxylic acid] was tested, and the pEC50 was < 4.52 and the Emax was 11%.

In the case of `Cc1c(-c2nc(C(=O)O)co2)nc(CN2CCC(c3cccc4c3O[C@@](C)(c3ccc(Cl)cc3F)O4)CC2)n1C[C@@H]1CCO1` [Compound C-13, 2-(2-((4-((S)-2-(4-chloro-2-fluorophenyl)-2-methylbenzo[d][1,3]dioxol-4-yl)piperidin-1-yl)methyl)-5-methyl-1-(((S)-oxetan-2-yl)methyl)-1H-imidazol-4-yl)oxazole-4-carboxylic acid], the pEC50 was < 4.52 and the Emax was 12%.

In the case of `CCc1oc(-c2c(C)nc(CN3CCC(c4cccc5c4O[C@@](C)(c4ccc(Cl)cc4F)O5)CC3)n2C[C@@H]2CCO2)nc1C(=O)O` [Compound C-10, 2-(2-((4-((S)-2-(4-chloro-2-fluorophenyl)-2-methylbenzo[d][1,3]dioxol-4-yl)piperidin-1-yl)methyl)-4-methyl-1-(((S)-oxetan-2-yl)methyl)-1H-imidazol-5-yl)-5-ethyloxazole-4-carboxylic acid], the pEC50 was < 4.52 and the Emax was 0%.

`Cc1c(-c2nc(C(F)(F)F)c(C(=O)O)o2)nc(CN2CCC(c3cccc4c3O[C@@](C)(c3ccc(Cl)cc3F)O4)CC2)n1C[C@@H]1CCO1` [Compound C-14, 2-(2-((4-((S)-2-(4-chloro-2-fluorophenyl)-2-methylbenzo[d][1,3]dioxol-4-yl)piperidin-1-yl)methyl)-5-methyl-1-(((S)-oxetan-2-yl)methyl)-1H-imidazol-4-yl)-4-(trifluoromethyl)oxazole-5-carboxylic acid] was tested, and the pEC50 was < 4.52 and the Emax was 0%.

In the case of `Cc1nc(CN2CCC(c3cccc4c3O[C@@](C)(c3ccc(Cl)cc3F)O4)CC2)n(C[C@@H]2CCO2)c1-c1nc(C(=O)O)co1` [Compound C-9, 2-(2-((4-((S)-2-(4-chloro-2-fluorophenyl)-2-methylbenzo[d][1,3]dioxol-4-yl)piperidin-1-yl)methyl)-4-methyl-1-(((S)-oxetan-2-yl)methyl)-1H-imidazol-5-yl)oxazole-4-carboxylic acid], the pEC50 was < 4.52 and the Emax was 0%.

In the case of `Cc1nc(CN2CCC(c3cccc4c3O[C@@](C)(c3ccc(Cl)cc3F)O4)CC2)n(C[C@@H]2CCO2)c1-c1coc(C(=O)O)n1` [Compound C-20, 4-(2-((4-((S)-2-(4-chloro-2-fluorophenyl)-2-methylbenzo[d][1,3]dioxol-4-yl)piperidin-1-yl)methyl)-4-methyl-1-(((S)-oxetan-2-yl)methyl)-1H-imidazol-5-yl)oxazole-2-carboxylic acid], the pEC50 was < 4.52 and the Emax was 0%.

In the case of `Cc1cc(-c2nc(CN3CCC(c4cccc5c4O[C@@](C)(c4ccc(Cl)cc4F)O5)CC3)n(C[C@@H]3CCO3)c2C)oc1C(=O)O` [Compound C-19, 5-(2-((4-((S)-2-(4-chloro-2-fluorophenyl)-2-methylbenzo[d][1,3]dioxol-4-yl)piperidin-1-yl)methyl)-5-methyl-1-(((S)-oxetan-2-yl)methyl)-1H-imidazol-4-yl)-3-methylfuran-2-carboxylic acid], the pEC50 was < 4.52 and the Emax was 7%.

`Cc1c(-c2coc(C(=O)O)n2)nc(CN2CCC(c3cccc4c3O[C@@](C)(c3ccc(Cl)cc3F)O4)CC2)n1C[C@@H]1CCO1` [Compound C-18, 4-(2-((4-((S)-2-(4-chloro-2-fluorophenyl)-2-methylbenzo[d][1,3]dioxol-4-yl)piperidin-1-yl)methyl)-5-methyl-1-(((S)-oxetan-2-yl)methyl)-1H-imidazol-4-yl)oxazole-2-carboxylic acid] was tested, and the pEC50 was < 4.52 and the Emax was 16%.

In the case of `Cc1oc(-c2nc(CN3CCC(c4cccc5c4O[C@@](C)(c4ccc(Cl)cc4F)O5)CC3)n(C[C@@H]3CCO3)c2C)nc1C(=O)O` [Compound C-12, 2-(2-((4-((S)-2-(4-chloro-2-fluorophenyl)-2-methylbenzo[d][1,3]dioxol-4-yl)piperidin-1-yl)methyl)-5-methyl-1-(((S)-oxetan-2-yl)methyl)-1H-imidazol-4-yl)-5-methyloxazole-4-carboxylic acid], the pEC50 was < 4.52 and the Emax was 10%.

With `CCc1nc(CN2CCC(c3cccc4c3O[C@@](C)(c3ccc(Cl)cc3F)O4)CC2)n(C[C@H]2CCO2)c1-c1nc(C(=O)O)co1` [Compound C-7, 2-(2-((4-((S)-2-(4-chloro-2-fluorophenyl)-2-methylbenzo[d][1,3]dioxol-4-yl)piperidin-1-yl)methyl)-4-ethyl-1-(((R)-oxetan-2-yl)methyl)-1H-imidazol-5-yl)oxazole-4-carboxylic acid] the pEC50 was < 4.52 and the Emax was 5%.

In the case of `C[C@]1(c2ccc(Cl)cc2F)Oc2cccc(C3CCN(Cc4nc(C(F)(F)F)c(-c5nc(C(=O)O)co5)n4C[C@@H]4CCO4)CC3)c2O1` [Compound C-4, 2-(2-((4-((S)-2-(4-chloro-2-fluorophenyl)-2-methylbenzo[d][1,3]dioxol-4-yl)piperidin-1-yl)methyl)-1-(((S)-oxetan-2-yl)methyl)-4-(trifluoromethyl)-1H-imidazol-5-yl)oxazole-4-carboxylic acid], the pEC50 was < 4.52 and the Emax was 0%.

`CCc1nc(CN2CCC(c3cccc4c3O[C@@](C)(c3ccc(Cl)cc3F)O4)CC2)n(C[C@@H]2CCO2)c1-c1nc(C(=O)O)co1` [Compound C-5, 2-(2-((4-((S)-2-(4-chloro-2-fluorophenyl)-2-methylbenzo[d][1,3]dioxol-4-yl)piperidin-1-yl)methyl)-4-ethyl-1-(((S)-oxetan-2-yl)methyl)-1H-imidazol-5-yl)oxazole-4-carboxylic acid] was tested, and the pEC50 was < 4.52 and the Emax was 0%.

For `Cc1nc(CN2CCC(c3cccc4c3O[C@@](C)(c3ccc(Cl)cc3F)O4)CC2)n(C[C@@H]2CCO2)c1-c1cc(C(=O)O)n(C)n1` [Compound C-21, 3-(2-((4-((S)-2-(4-chloro-2-fluorophenyl)-2-methylbenzo[d][1,3]dioxol-4-yl)piperidin-1-yl)methyl)-4-methyl-1-(((S)-oxetan-2-yl)methyl)-1H-imidazol-5-yl)-1-methyl-1H-pyrazole-5-carboxylic acid], the pEC50 was < 4.52 and the Emax was 0%.

For `Cc1c(-c2cc(C(=O)O)n(C)n2)nc(CN2CCC(c3cccc4c3O[C@@](C)(c3ccc(Cl)cc3F)O4)CC2)n1C[C@@H]1CCO1` [Compound C-17, 3-(2-((4-((S)-2-(4-chloro-2-fluorophenyl)-2-methylbenzo[d][1,3]dioxol-4-yl)piperidin-1-yl)methyl)-5-methyl-1-(((S)-oxetan-2-yl)methyl)-1H-imidazol-4-yl)-1-methyl-1H-pyrazole-5-carboxylic acid], the pEC50 was < 4.52 and the Emax was 2%.

For `Cc1c(-c2ccc(C(=O)O)o2)nc(CN2CCC(c3cccc4c3O[C@@](C)(c3ccc(Cl)cc3F)O4)CC2)n1C[C@@H]1CCO1` [Compound C-24, 5-(2-((4-((S)-2-(4-chloro-2-fluorophenyl)-2-methylbenzo[d][1,3]dioxol-4-yl)piperidin-1-yl)methyl)-5-methyl-1-(((S)-oxetan-2-yl)methyl)-1H-imidazol-4-yl)furan-2-carboxylic acid], the pEC50 was < 4.52 and the Emax was 1%.
